The record followed here is article doi:10.1101/2023.10.21.563410v1 (biorxiv, 2023).

In series [1] the target is MRP2 (Homo sapiens, UniProt Q92887). As to the kind of experiment: fluorimetric uptake of […]. The format is cell-based.
Series [2] concerns the target BSEP (Homo sapiens, UniProt O95342). As to the kind of experiment: uptake of 3H-taurocholic acid in membrane vesicles, scintillation counting. The format is biochemical. The following applies: read-out: % of control activity at 10 μM.
In series [3] the target is T1, OATP1B3 (Homo sapiens, UniProt Q9NPD5).
T1 sequence (Q9NPD5 1-702): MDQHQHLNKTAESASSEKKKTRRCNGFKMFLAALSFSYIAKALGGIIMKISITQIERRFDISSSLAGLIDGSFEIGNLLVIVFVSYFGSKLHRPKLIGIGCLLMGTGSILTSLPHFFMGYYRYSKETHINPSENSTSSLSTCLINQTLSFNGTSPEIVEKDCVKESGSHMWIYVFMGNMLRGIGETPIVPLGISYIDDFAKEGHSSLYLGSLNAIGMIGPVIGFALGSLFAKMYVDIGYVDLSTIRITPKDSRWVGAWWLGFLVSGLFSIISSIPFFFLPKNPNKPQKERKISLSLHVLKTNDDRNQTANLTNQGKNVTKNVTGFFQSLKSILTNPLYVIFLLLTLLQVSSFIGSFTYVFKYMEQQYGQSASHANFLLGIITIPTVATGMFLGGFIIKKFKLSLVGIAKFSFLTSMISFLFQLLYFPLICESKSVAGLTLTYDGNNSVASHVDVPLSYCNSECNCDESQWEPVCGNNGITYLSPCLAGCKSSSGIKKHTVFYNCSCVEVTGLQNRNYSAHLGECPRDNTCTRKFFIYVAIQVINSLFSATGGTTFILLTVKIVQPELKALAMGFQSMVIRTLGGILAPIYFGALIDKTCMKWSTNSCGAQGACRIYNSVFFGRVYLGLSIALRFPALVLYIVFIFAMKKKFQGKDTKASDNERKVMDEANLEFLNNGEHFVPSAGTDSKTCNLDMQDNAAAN
As to the kind of experiment: fluorimetric uptake of fluorescein-methotrexate. The format is cell-based. The following applies: racemic compound.

In series [4] the target is T2, OATP1B1 (Homo sapiens, UniProt Q9Y6L6).
T2 sequence (Q9Y6L6 1-691): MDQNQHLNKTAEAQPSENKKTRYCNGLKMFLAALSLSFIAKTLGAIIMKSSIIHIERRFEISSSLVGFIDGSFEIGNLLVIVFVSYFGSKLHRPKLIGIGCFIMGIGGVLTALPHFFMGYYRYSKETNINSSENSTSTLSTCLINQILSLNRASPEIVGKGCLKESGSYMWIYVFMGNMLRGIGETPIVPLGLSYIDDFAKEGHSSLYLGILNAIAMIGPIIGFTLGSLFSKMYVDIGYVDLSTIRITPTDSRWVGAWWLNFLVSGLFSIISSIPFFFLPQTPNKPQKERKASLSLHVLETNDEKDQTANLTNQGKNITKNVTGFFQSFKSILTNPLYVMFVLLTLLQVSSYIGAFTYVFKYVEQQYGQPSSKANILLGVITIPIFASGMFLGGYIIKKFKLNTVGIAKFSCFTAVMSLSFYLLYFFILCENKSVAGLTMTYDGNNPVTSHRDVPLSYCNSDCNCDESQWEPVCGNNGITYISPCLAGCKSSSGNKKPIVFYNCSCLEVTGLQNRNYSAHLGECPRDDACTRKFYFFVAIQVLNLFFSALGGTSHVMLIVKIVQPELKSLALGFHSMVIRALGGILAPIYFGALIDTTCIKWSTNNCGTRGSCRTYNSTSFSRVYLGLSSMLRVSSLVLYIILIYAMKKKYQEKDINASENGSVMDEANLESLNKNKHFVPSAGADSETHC
As to the kind of experiment: fluorimetric uptake of fluorescein-methotrexate. The following applies: racemic compound. The format is cell-based.

Series [5] concerns the target T3, hPXR (Homo sapiens, UniProt O75469).
T3 sequence (O75469 1-434): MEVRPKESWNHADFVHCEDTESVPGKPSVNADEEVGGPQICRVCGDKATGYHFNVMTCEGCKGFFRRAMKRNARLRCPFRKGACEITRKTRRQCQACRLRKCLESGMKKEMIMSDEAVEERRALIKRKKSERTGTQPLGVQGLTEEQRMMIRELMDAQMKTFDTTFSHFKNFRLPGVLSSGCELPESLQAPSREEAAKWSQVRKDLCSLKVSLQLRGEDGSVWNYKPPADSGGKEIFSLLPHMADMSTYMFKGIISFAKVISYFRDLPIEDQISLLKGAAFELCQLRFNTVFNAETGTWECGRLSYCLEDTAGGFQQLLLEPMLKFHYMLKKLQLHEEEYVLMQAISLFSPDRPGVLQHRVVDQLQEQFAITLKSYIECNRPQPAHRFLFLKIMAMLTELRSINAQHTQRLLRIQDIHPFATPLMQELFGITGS
As to the kind of experiment: luciferase reporter gene assay. The format is cell-based. In general terms: Reporter assays use an easily measured gene product as a stand-in for the process of interest.

The target in series [6] is T1, OATP1B3. As to the kind of experiment: fluorimetric uptake of fluorescein-methotrexate. It is filed as cell-based.
For series [7], the target named is T2, OATP1B1. As to the kind of experiment: fluorimetric uptake of fluorescein-methotrexate. The format is cell-based.

Sequence of MRP2 (Q92887 whole entry): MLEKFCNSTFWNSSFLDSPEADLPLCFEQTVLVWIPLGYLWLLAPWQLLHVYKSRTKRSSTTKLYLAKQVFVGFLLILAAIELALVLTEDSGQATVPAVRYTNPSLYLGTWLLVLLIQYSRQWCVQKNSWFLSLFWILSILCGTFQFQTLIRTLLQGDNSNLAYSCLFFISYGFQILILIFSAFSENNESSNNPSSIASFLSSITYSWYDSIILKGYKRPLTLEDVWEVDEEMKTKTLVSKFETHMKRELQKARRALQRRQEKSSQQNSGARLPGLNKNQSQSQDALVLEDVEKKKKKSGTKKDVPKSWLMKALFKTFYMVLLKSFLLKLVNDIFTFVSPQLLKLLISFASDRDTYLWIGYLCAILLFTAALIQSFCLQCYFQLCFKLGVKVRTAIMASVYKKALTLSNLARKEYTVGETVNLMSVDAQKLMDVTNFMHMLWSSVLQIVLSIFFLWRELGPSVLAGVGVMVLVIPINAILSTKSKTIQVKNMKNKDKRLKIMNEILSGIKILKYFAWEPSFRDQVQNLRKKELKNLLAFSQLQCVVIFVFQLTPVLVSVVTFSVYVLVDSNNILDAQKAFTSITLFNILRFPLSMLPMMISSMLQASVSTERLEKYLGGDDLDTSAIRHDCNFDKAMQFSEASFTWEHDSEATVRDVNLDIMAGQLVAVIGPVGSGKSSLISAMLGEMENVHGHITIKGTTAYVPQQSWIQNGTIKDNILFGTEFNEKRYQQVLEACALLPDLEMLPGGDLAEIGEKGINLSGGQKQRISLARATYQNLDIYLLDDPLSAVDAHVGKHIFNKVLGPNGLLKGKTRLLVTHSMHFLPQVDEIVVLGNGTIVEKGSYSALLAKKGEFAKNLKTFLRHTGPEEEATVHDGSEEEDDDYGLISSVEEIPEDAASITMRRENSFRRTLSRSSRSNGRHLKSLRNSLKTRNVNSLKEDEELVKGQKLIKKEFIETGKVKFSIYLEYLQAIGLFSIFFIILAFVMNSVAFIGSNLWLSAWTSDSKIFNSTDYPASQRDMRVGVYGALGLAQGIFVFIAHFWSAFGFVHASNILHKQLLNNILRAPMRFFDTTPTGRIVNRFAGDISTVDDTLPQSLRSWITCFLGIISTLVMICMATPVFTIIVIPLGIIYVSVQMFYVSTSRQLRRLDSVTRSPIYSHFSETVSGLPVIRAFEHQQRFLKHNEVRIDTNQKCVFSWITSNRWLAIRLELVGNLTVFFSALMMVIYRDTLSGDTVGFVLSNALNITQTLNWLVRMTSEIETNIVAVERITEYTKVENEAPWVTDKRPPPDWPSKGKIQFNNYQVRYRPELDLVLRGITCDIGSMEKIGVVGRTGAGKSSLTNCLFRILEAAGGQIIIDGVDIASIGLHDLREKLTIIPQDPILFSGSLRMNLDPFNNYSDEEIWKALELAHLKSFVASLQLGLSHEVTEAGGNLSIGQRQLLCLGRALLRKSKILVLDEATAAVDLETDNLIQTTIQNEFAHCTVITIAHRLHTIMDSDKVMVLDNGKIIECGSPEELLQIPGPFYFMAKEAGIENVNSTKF
Sequence of BSEP (O95342 whole entry): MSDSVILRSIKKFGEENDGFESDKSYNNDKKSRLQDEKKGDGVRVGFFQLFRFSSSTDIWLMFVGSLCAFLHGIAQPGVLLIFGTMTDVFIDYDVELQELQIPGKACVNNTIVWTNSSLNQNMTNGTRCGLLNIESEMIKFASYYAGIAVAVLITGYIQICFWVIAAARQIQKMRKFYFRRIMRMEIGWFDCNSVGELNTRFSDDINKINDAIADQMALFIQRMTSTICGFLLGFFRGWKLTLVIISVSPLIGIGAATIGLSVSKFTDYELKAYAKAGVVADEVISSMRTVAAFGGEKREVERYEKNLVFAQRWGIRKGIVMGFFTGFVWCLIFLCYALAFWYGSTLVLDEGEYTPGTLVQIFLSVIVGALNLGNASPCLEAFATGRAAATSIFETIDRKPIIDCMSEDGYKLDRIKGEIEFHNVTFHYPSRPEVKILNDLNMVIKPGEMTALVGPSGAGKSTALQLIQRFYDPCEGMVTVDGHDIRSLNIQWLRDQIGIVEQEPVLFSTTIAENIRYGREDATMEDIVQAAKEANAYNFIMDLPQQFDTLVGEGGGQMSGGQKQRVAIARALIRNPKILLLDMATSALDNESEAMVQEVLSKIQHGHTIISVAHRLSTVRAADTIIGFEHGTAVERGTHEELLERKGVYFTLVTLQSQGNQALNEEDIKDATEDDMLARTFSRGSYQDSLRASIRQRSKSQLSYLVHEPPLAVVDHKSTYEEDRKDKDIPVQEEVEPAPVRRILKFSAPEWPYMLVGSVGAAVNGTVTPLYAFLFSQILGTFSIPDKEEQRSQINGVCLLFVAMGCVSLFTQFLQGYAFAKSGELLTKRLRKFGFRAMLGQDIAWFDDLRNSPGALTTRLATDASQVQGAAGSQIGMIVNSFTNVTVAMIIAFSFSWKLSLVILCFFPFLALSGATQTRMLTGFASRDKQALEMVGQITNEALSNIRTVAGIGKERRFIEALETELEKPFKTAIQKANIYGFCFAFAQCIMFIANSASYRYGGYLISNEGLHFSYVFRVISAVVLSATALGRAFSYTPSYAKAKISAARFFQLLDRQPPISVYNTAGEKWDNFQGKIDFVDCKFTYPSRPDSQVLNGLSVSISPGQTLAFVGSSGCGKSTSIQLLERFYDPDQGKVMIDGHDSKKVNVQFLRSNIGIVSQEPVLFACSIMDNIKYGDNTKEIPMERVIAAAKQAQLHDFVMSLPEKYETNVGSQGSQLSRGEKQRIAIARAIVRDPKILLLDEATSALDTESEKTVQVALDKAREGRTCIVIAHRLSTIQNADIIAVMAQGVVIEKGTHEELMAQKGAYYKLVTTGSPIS

As a reminder, the IC50 is the midpoint of a concentration-inhibition curve. Lower therefore signals greater potency in that assay. `CN(C)C(=O)CCSC(SCCC(=O)O)c1cccc(/C=C/c2ccc3ccc(Cl)cc3n2)c1` (centres unmarked) [MK571]: in series [1], the concentration for half-maximal inhibition (IC50) was 22 µM.
Regarding `C#CCC(O)(c1ccncc1)c1cc2ccccc2n1S(=O)(=O)c1ccccc1` (racemic) [FKK6, 1-(1-(phenylsulfonyl)-1H-indol-2-yl)-(1-pyridin-4-yl)-but-3-yn-1-ol], the remaining activity at 10 µM in series [2] was found to be 44%. For the same compound, the figures for the “% of control activity at 10 μM” value in series [3] and in series [4] were 36% and 34%, respectively.
Broadly, the EC50 is the concentration needed to bring the measured effect to its halfway point. The compound `C#CCC(O)(c1cc[n+]([O-])cc1)c1cc2ccccc2n1S(=O)(=O)c1ccccc1` (centres unmarked) [compound 6, 4-(1-hydroxy-1-(1-(phenylsulfonyl)-1H-indol-2-yl)but-3-yn-1-yl)pyridine 1-oxide] gave an EC50 in series [5] of 7.8 µM.
`CO[C@H]1/C=C/O[C@@]2(C)Oc3c(C)c(O)c4c(O)c(c(/C=N/N5CCN(C)CC5)c(O)c4c3C2=O)NC(=O)/C(C)=C\C=C\[C@H](C)[C@H](O)[C@@H](C)[C@@H](O)[C@@H](C)[C@H](OC(C)=O)[C@@H]1C` [rifampicin]: the IC50 in series [6] came to 3.9 µM; in series [7] it was 3.4 µM.
In series [5], `C#CCC(O)(c1ccncc1)c1cc2ccccc2n1S(=O)(=O)c1ccc(O)cc1` (centres unmarked) [compound 9, 4-((2-(1-hydroxy-1-(pyridin-4-yl)but-3-yn-1-yl)-1H-indol-1-yl)sulfonyl)phenol] showed an EC50 of 5.1 µM.
